Patent publication US9346846B1, “Anti-cancer compounds and methods for treating cancer” (YALE UNIVERSITY, priority 2013, dated 2016)
Entries after “also recorded” stand apart in the source; their conditions may differ.

Legend:
Assay type in all cases: cell-based
[1] = tested on: DDR-deficient cancer cells (BRCA2, pten, KU80 and DNApk); assay: Chronogenic survival assay in DNA damage response deficient cancer cell lines
Protocol: (§1) A number of cancer cells lines were tested for effectness of (−)-lomaiviticin A or MK7-206. These cell lines are DNA damage response deficient cells (DDR-deficient cancer cells, indicated in FIGS. 16-24) or hypoxic cells (indicated in FIG. 25). The indicated cells were seeded at 500 cells per well in 6-23ll dishes and treated with various concentrations of (−)-lomaiviticin A at the indicated concentrations indicated in FIGS. 16-25 for a period of 24 hours, after which time the media containing the inhibitor was removed and replaced with fresh media. Colonies were fixed with 0.9% saline solution and stained with crystal violet 8-14 days later. Colonies consistent of greater than 50 cells were counted. Experiments utilizing MK7-206 for the cell lines which are presented in attached FIG. 28 (Table 2) and FIG. 30 (Table 4) were also conducted (at higher concentrations than for (−)lomaiviticin A).

[2] = tested on: hypoxic MCF7 cells; assay: Chronogenic survival assay in hypoxic versus normoxic MCF7 cells; conditions: hypoxia vs normoxia, 24 hours treatment
Protocol: as §1

[3] = tested on: pATR; assay: Western blotting of treated MCF7 cells, pATR; conditions: 24 hour treatment, listed as LA
Protocol: (§2) MCF-7 are seeded into 6-well dishes and treated with various doses of (−)-lomaiviticin A (LA), in the absence and presence of ionizing radiation (IR) at a dose rate of 2.4295 Gy/min (2 Gy, X-Ray) for 24 hour. After treatment, the cells were harvested for lysis in AZ lysis buffer ([…] Tris, 250 mM NaCl, 1% Igepal, 0.1% SDS, 5 mM EDTA, 10 mM Na4P2O7, 10 mM NaF) containing protease and phosphatase inhibitors. Western blotting was performed (FIG. 26).
(§3) Primary antibodies used were: mouse monoclonal anti-Ser1981-pATM (10H11.E12, Millipore, Temecula, Calif.), mouse monoclonal anti-vinculin (SPM227, Abcam, Cambridge, Mass.), rabbit polyclonal anti-Ser428-pATR (Cell Signaling, Danvers, Mass.), rabbit polyclonal anti-Thr68-pCHK2 (Cell Signaling), rabbit monoclonal anti-CHK2 (D9C6, Cell Signaling), rabbit monoclonal anti-Ser345-pCHK1 (Cell Signaling), and rabbit monoclonal anti-CHK1 (E250, Millipore).
(§4) Proteins were visualized with horseradish peroxidase-conjugated anti-mouse and anti-rabbit immunoglobulin G (Thermo Scientific, Rockford, Ill.) and the SuperSignal West Pico Chemiluminescent Substrate detection system (Thermo Scientific).

[4] = tested on: pCHK2; assay: Western blotting of treated MCF7 cells, pCHK2; conditions: 24 hour treatment
Protocol: as §2, §3, §4

[5] = tested on: hypoxic A549 cells; assay: Chronogenic survival assay in hypoxic versus normoxic A549 cells; conditions: hypoxia vs normoxia, 24 hours treatment
Protocol: as §1

[6] = tested on: pATM; assay: Western blotting of treated MCF7 cells, pATM; conditions: 24 hour treatment
Protocol: as §2, §3, §4

[7] = tested on: pCHK1; assay: Western blotting of treated MCF7 cells, pCHK1; conditions: 24 hour treatment, listed as LA
Protocol: as §2, §3, §4

(−)-lomaiviticin A
sensitivity of DDR-deficient cells to the compound ([1]; DDR-deficient (BRCA2, pten, KU80, DNApk) cells, 24 hours treatment, colonies stained 8-14 days later): more sensitive; also recorded: particularly susceptible | efficacy against cell lines in which DNA damage repair systems are deficient or down regulated ([1]; FIGS. 27-30): excellent efficacy | sensitivity of hypoxic cells compared with normoxic cells [2]: more sensitive | change in pATR (western blot) [3]: no increase | change in pCHK2 (western blot) [4]: increase | sensitivity of hypoxic cells compared with normoxic cells [5]: more sensitive | change in pATM (western blot) [6]: increase | change in pCHK1 (western blot) [7]: no increase
